Literature values in US20260315434A1, “USE OF GUAIACOL SESQUITERPENE LACTONE DERIVATIVES” (NANJING UNIVERSITY OF CHINESE MEDICINE, priority 2023, published 2026).

Molecular target: farnesyltransferase (FTase)
Conditions: cited from earlier work

C=C1C(=O)O[C@@H]2[C@H]3C(C)=CC[C@@]34O[C@@]4(C)CC[C@@H]12 [Arg, Arglabin, reference compound]
IC50 for inhibiting H-Ras protein farnesylation: only at the micromolar level
